Values of other authors, collected in patent publication US20060160230A1, “Wipes and methods for removal of metal contamination from surfaces” (The Government of the United States of America as …, priority 2005, published 2006).

How the values were obtained:
[1] = 10% citric acid lotion applied topically for a three month period (Bernstein et al. 1997)
[2] = 1999; rinse-off cosmetic products

Row | Compound | clinical signs of adverse effects [1] | safety conclusion of CIR Expert Panel [2]
1 | O=C(O)CC(O)(CC(=O)O)C(=O)O [citric acid] | No clinical signs of adverse effects | –
2 | isostearamidopropyl morpholine lactate [ISML] | – | considered safe for use in rinse-off cosmetic products
